Experimental data: US20230123334A1, “AMINO LIPID COMPOUND, PREPARATION METHOD THEREFOR, AND APPLICATION THEREOF” (SHENZHEN SHENXIN BIOTECHNOLOGY CO., LTD., priority 2020, published 2023)

System: HEK293 cells
Assay: Preliminary screening as mRNA vectors, EGFP mRNA transfection of HEK293 cells
Type: cell-based
Settings: EGFP mRNA 50 ng per well, 96-well plates; percentage of GFP fluorescent cells relative to total number of cells (Hoechst)
Procedure, shortened: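 HEK293 cells in DMEM plus 10% FBS transfected in 96-well format with 50 ng EGFP mRNA per well; Lipofectamine2000 served as positive control. Read-out is the percentage of GFP-fluorescent cells among total cells, counted by Hoechst nuclear stain.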

Row | SMILES | Absolute mRNA transfection efficiency in HEK293 cells
1 | CCCCCCCCCCCCCCSc1nc(NCC2CCN(C)CC2)nc(SCCCCCCC)n1 [Compound D10S7S14] | 88.7%
2 | CCCCCCCCCCCCCCCCCCNc1nc(NCCN2CCOCC2)nc(SCCCCCCCCCC)n1 [Compound D2S10N18] | 0.0%
3 | CCCCCCCCCCCCCNc1nc(NCCCN(C)C)nc(SCCCCCCCCCC)n1 [Compound D6S10N13] | 10.2%
4 | CCCCCCCCCCCCCCCCSc1nc(NCCCCCCCC)nc(NCCCN(C)C)n1 [Compound D6S16N8] | 91.5%
5 | CCCCCCCCCCCCCCCNc1nc(NCCN2CCN(C)CC2)nc(SCCCCCCCC)n1 [Compound D5S8N15] | 14.9%
6 | CCCCCCCCCCCCNc1nc(NCCCN(C)C)nc(SCCCCCCC)n1 [Compound D6S7N12] | 12.5%
7 | CCCCCCCCCCCCNc1nc(NCCN2CCN(C)CC2)nc(SCCCCCCCCCC)n1 [Compound D5S10N12] | 3.6%
8 | CCCCCCCCCSc1nc(NCCCCCCCC)nc(NCCCN2CCOCC2)n1 [Compound D8S9N8] | 5.7%
9 | CCCCCCCCCCCCCCCCCCNc1nc(NCCN(C)C)nc(SCCCCCCC)n1 [Compound D1S7N18] | 35.7%
10 | CCCCCCCCCCCCCCCCSc1nc(NCCCCCCCCCCCC)nc(NCCN(C)C)n1 [Compound D1S16N12] | 3.0%
11 | CCCCCCCCCCCCCCCNc1nc(NCCCN2CCN(C)CC2)nc(SCCCCCC)n1 [Compound D9S6N15] | 11.9%
12 | CCCCCCCCCCCCN(CCCCCCCCCCCC)c1nc(NCCN2CCCC2)nc(SCCCCCCCCC)n1 [D3S9^2N12] | 1.3%
13 | CCCCCCCCCCCCCCCSc1nc(NCCCCCCCCCCC)nc(NCCN2CCOCC2)n1 [Compound D2S15N11] | 3.3%
14 | CCCCCCCCCCCCCCCCCCSc1nc(NCCCCCCCCCCCC)nc(NCCN2CCCCC2)n1 [Compound D4S18N12] | 0.7%
15 | CCCCCCCCCCCCCCCNc1nc(NCCN(CC)CC)nc(SCCCCCCC)n1 [Compound D7S7N15] | 18.5%
16 | CCCCCCCCCCCCCCCSc1nc(NCCCN(C)C)nc(SCCCCCCC)n1 [Compound D6S7S15] | 90.0%
17 | CCCCCCCCCCCCN(CCCCCCCCCCCC)c1nc(NCCN2CCN(C)CC2)nc(SCCCCCCCCC)n1 [D5S9^2N12] | 0.4%
18 | CCCCCCCCCCCSc1nc(NCCCCCCCCC)nc(NCCN2CCN(C)CC2)n1 [Compound D5S11N9] | 41.5%
19 | CCCCCCCCCCCCCCCNc1nc(NCCCN(C)C)nc(SCCCCCCCCCCCCCCC)n1 [Compound D6S15N15] | 0.8%
20 | CCCCCCCCCCCCCCCCCCSc1nc(NCCCN(C)C)nc(SCCCCCC)n1 [Compound D6S6S18] | 83.3%
21 | CCCCCCCCSc1nc(NCCN(C)C)nc(SCCCCCCC)n1 [Compound D1S7S8] | 16.7%
22 | CCCCCCCCCCCCCCCCCCSc1nc(NCCCCCCCCCCCCCCCC)nc(NCCN2CCCCC2)n1 [Compound D4S18N16] | 0.4%

Row | SMILES | Absolute mRNA transfection efficiency in HEK293 cells
23 | CCCCCCCCCNc1nc(NCCN(CC)CC)nc(SCCCCCCC)n1 [Compound D7S7N9] | 10.5%
24 | CCCCCCCCCCCCCCCCCCSc1nc(NCCCCCCCCCCCC)nc(NCCCN(C)C)n1 [Compound D6S18N12] | 2.6%
25 | CCCCCCCCCCCCCCCCNc1nc(NCCCN(C)C)nc(SCCCCCCCCCCCCCC)n1 [Compound D6S14N16] | 0.5%
26 | CCCCCCCCCCCCCCCSc1nc(NCCCCCCCCCCCC)nc(NCCN(C)C)n1 [Compound D1S15N12] | 4.8%
27 | CCCCCCCCCCCCCCCCCCNc1nc(NCCCN2CCOCC2)nc(SCCCCCCCCCCCCCCCC)n1 [Compound D8S16N18] | 0.0%
28 | CCCCCCCCCCCCCCCNc1nc(NCCCN2CCN(C)CC2)nc(SCCCCCCC)n1 [Compound D9S7N15] | 32.6%
29 | CCCCCCCCCCCCSc1nc(NCCN2CCOCC2)nc(N(CCCCCCCCCCCC)CCCCCCCCCCCC)n1 [D2S12^2N12] | 0.1%
30 | CCCCCCCCCCCSc1nc(NCCCCCCCC)nc(NCC2CCN(C)CC2)n1 [Compound D10S11N8] | 46.1%
31 | CCCCCCCCCCSc1nc(NCCCCCC)nc(NCCN(CC)CC)n1 [Compound D7S10N6] | 0.6%
32 | CCCCCCCCCCCCCCCCCCSc1nc(NCCCCCCC)nc(NCCN2CCOCC2)n1 [Compound D2S18N7] | 1.0%
33 | CCCCCCCCCCCCSc1nc(NCCCCCCCCCCC)nc(NCCN2CCCC2)n1 [Compound D3S12N11] | 21.2%
34 | CCCCCCCCCCCCCCCCSc1nc(NCCCCCCC)nc(NCCN2CCCCC2)n1 [Compound D4S16N7] | 0.8%
35 | CCCCCCCSc1nc(NCCN2CCOCC2)nc(SCCCCCC)n1 [Compound D2S6S7] | 0.6%
36 | CCCCCCCCCCCCCCCCCCNc1nc(NCCN2CCCC2)nc(SCCCCCCCCC)n1 [Compound D3S9N18] | 26.7%
37 | CCCCCCCCCCCCCCCCSc1nc(NCCCCCC)nc(NCCN2CCCC2)n1 [Compound D3S16N6] | 96.0%
38 | CCCCCCCCSc1nc(NCCCN(C)C)nc(SCCCCCCCC)n1 [Compound D6S8S8] | 45.6%
39 | CCCCCCCCCCCCCCCCCCNc1nc(NCCN2CCCCC2)nc(SCCCCCC)n1 [Compound D4S6N18] | 1.8%
40 | CCCCCCCCCCCCCCCCSc1nc(NCCCCCCCCCCCCCCC)nc(NCCN2CCN(C)CC2)n1 [Compound D5S16N15] | 0.1%
41 | CCCCCCCCCCCCCCCCCCSc1nc(NCCCCCC)nc(NCCN(C)C)n1 [Compound D1S18N6] | 42.6%
42 | CCCCCCCCCCCCCCCSc1nc(NCCCCCCCCCCC)nc(NCCN2CCCCC2)n1 [Compound D4S15N11] | 1.0%
43 | CCCCCCCCCCCCCNc1nc(NCCN(C)C)nc(SCCCCCCCCCCC)n1 [Compound D1S11N13] | 12.6%
44 | CCCCCCCCCSc1nc(NCCCN2CCN(C)CC2)nc(SCCCCCCC)n1 [Compound D9S7S9] | 35.3%

Row | SMILES | Absolute mRNA transfection efficiency in HEK293 cells
45 | CCCCCCCCCCCCCCCCNc1nc(NCCN(C)C)nc(SCCCCCCC)n1 [Compound D1S7N16] | 29.5%
46 | CCCCCCCCCSc1nc(NCCCN2CCOCC2)nc(SCCCCCCC)n1 [Compound D8S7S9] | 18.6%
47 | CCCCCCCCCCCCSc1nc(NCCCCCCC)nc(NCCN(CC)CC)n1 [Compound D7S12N7] | 13.1%
48 | CCCCCCCCCCCCNc1nc(NCCCN2CCN(C)CC2)nc(SCCCCCCCCC)n1 [Compound D9S9N12] | 36.0%
49 | CCCCCCCCCSc1nc(NCCN(C)C)nc(SCCCCCC)n1 [Compound D1S6S9] | 2.3%
50 | CCCCCCCCCCCCCCSc1nc(NCCCCCCC)nc(NCCCN2CCN(C)CC2)n1 [Compound D9S14N7] | 50.1%
51 | CCCCCCCCCCCCCCCNc1nc(NCCCN(C)C)nc(SCCCCCCCCCC)n1 [Compound D6S10N15] | 3.5%
52 | CCCCCCCCCCSc1nc(NCC2CCN(C)CC2)nc(SCCCCCCCC)n1 [Compound D10S8S10] | 74.2%
53 | CCCCCCCCCCCCCCCCCCSc1nc(NCCCCCCCCCCCCCCC)nc(NCC2CCN(C)CC2)n1 [Compound D10S18N15] | 0.2%
54 | CCCCCCCCCCCCSc1nc(NCCCCCCCCCCC)nc(NCCCN(C)C)n1 [Compound D6S12N11] | 14.0%
55 | CCCCCCCCCCCSc1nc(NCCCCCCCC)nc(NCCN2CCCC2)n1 [Compound D3S11N8] | 31.8%
56 | CCCCCCCCCCCCCCCNc1nc(NCCN(CC)CC)nc(SCCCCCCCCCCCC)n1 [Compound D7S12N15] | 1.3%
57 | CCCCCCCCCCCCCCCCCCNc1nc(NCCCN(C)C)nc(SCCCCCCC)n1 [Compound D6S7N18] | 49.2%
58 | CCCCCCCCCCCCCCCCCCSc1nc(NCCCCCC)nc(NCCN2CCCC2)n1 [Compound D3S18N6] | 58.9%
59 | CCCCCCCCCCCCCCSc1nc(NCCCCCCC)nc(NCCN2CCN(C)CC2)n1 [Compound D5S14N7] | 59.0%
60 | CCCCCCCCCCCCCCCNc1nc(NCCN2CCN(C)CC2)nc(SCCCCCCCCCCCCCCC)n1 [Compound D5S15N15] | 0.7%
61 | CCCCCCCCCSc1nc(NCCN2CCOCC2)nc(SCCCCCC)n1 [Compound D2S6S9] | 6.3%
62 | CCCCCCCCCCCSc1nc(NCCCCCCCC)nc(NCCCN2CCN(C)CC2)n1 [Compound D9S11N8] | 37.6%
63 | CCCCCCCCCCCCCCCSc1nc(NCCCCCCCC)nc(NCCN2CCCCC2)n1 [Compound D4S15N8] | 1.6%
64 | CCCCCCCCCCCCCCCCNc1nc(NCC2CCN(C)CC2)nc(SCCCCCCCCCCCCCCC)n1 [Compound D10S15N16] | 6.1%
65 | CCCCCCCCCCCCCCCCNc1nc(NCCN2CCCC2)nc(SCCCCCCCCC)n1 [Compound D3S9N16] | 50.3%
66 | CCCCCCCCCCCCCCSc1nc(NCCCCCCCCCCCC)nc(NCC2CCN(C)CC2)n1 [Compound D10S14N12] | 6.9%
